Source: patent US20240398829A1, “A COBALT-[…] AMINO ACID COMPLEX AND ITS USE FOR TREATING CANCER” (AMELIO BIOTECH CO., LTD., priority 2021, published 2024)
Where “and” joins values, the source holds several entries; their conditions need not be identical. Equal values may be shown once.

Tests used:
zebrafish liver = test: Hepatoxicity assay in Tg(fabp10a:EGFP-mCherry) embryos; settings: 10 μM, embryos treated from 3 dpf
Procedure: About 3 dpf, 50 embryos were distributed into 10 ml chemical solution/well (chemical/E3 solution) in 6-well plates until 5 dpf and new chemical solution was replaced every day. At 5 dpf, embryos were anesthetized with tricaine (0.016%) and the images of 8 to 10 embryos randomly per well were taken by ZEISS AxioCam MRc. There are three different images which one with auto exposure-time for the clearest view, one with fixed exposure-time to capture RFP (red fluorescent protein) intensity below saturation for intensity measurement and comparison, and the last one with sufficient exposure-time to show the whole liver region for size measurement. Image J software was then used to quantify intensity of RFP and liver size. Average RFP intensity in the liver was calculated and compared within the same group of lateral view fry under the same magnification and fixed exposure-time.
Images were analyzed by Image J software.

[1] = tested on: tert transgenic zebrafish; test: H&E staining of liver cells of tert transgenic zebrafish; format: in vivo, zebrafish (Danio rerio); settings: 15 dpf
Procedure: (§1) 50 zebrafish larva were placed in a fish tank with 800 ml of system water, the water were refreshed every day at 4 pm. From day 5 to day 15, AB(WT) and tert transgenic zebrafish were fed with normal larva food, plus 20 ml of Paramecium, and there must be 2 hours between meals, four meals a day. The last meal must be fed after 1 hour before the water changed. […] The fish were fasting for one days before collecting the samples for RNA extraction and hematoxylin-eosin (H&E) staining.
After 1 month of RO injection, the fish was sacrificed, and the liver was taken out and divided into two parts for RNA isolation and paraffin section. The liver tissues were frozen in liquid nitrogen immediately after sectioning and stored at −80° C. for later RNA isolation. For histochemistry analysis, liver tissues were fixed in a 10% formalin solution (Sigma-Aldrich Inc., St. Louis, MO, USA). The fixed tissue was embedded in paraffin, and sectioned at 5-μm thickness mounted on poly-L-lysine coated slides, and the sections were stained with hematoxylin and eosin (H&E stain), which this part was performed by the Pathology core facility.
H&E staining is mainly to observe the states of mitotic figures, […] cells, and macronucleated cells that represent hepatocyte undergoes carcinogenesis.

K-562 = test: Cell proliferation assay II (MTS), K-562; format: cell-based, human; settings: K-562, 72 h, mean ± SD
Procedure: (§2) Human lung cancer cell line NCI-H226 was purchased from the American type culture collection (CRL-5826). NCI-H226 was grown in RPMI supplemented with 10% FBS in a humidified atmosphere containing 5% CO2 at 37° C. Human melanoma cell line A375, human pharynx squamous cell carcinoma FaDu, human cervical epithelioid carcinoma HeLa and human chronic myelogenous leukemia K-562 were purchased from Bioresource Collection and Research Center (BCRC), Hsinchu 300, Taiwan. A375 cells were grown in DMEM supplemented with 10% FBS in a humidified atmosphere 5% CO2 at 37° C. FaDu cells were grown in DMEM supplemented with 10% FBS in a humidified atmosphere 5% CO2 at 37° C. HeLa cell were grown in DMEM supplemented with 10% FBS in a humidified atmosphere 5% CO2 at 37° C. […]
(§3) MTS/PMS solution was freshly prepared and added (20 μl per well) into each well of 96-well cultured plate. The assay plate was incubated for 3 hours at 37° C., 5% CO2, under humidified atmosphere, and measured the absorbance at 490 nm using Multiskan™ GO Microplate Spectrophotometer (Thermo Fisher Scientific).
(§4) Corrected absorbance values were obtained by subtracting the average 490 nm absorbance of the negative control wells (medium only, no cell, as background control) from all other absorbance values. Percentage inhibition of cell growth for compound treatment was calculated using this formula: […]

U-87 MG cells = test: Cell proliferation assay I (PrestoBlue), U-87 MG; format: cell-based, human; settings: 72 h; for U-87 MG cell survival (%): vs control without drug
Procedure: (§5) U-87 MG cells (a human primary glioblastoma cell line) were cultured in MEM medium (Gibco, New York, NY, USA). A375 cells (a human melanoma cell line) and Huh7 cells (a human hepatocellular carcinoma (HCC) cell line) were cultured in DMEM medium (HyClone, Logan, UT, USA). The culture media were supplemented with 10% heat-inactivated fetal bovine serum (FBS), 1% penicillin/streptomycin and 1% […] (HyClone, Logan, UT, USA). Cells were seeded in 96-well plates at a density of 2000 cells/well. Then, cells were transferred to 37° C. incubator. […] At the end of incubation, the PrestoBlue™ Cell Viability Reagent (Invitrogen, Eugene, OR, USA) was distributed to cells. The plates were incubated for 90 min at 37° C. in a humidified, 5% CO2 atmosphere and the fluorescence was then recorded at Ex/Em: 560 nm/590 nm. Triplicate experiments were performed.

NCI-H226 = test: Cell proliferation assay II (MTS), NCI-H226; format: cell-based, human; settings: NCI-H226, 72 h, mean ± SD
Procedure: as §2, §3, §4

Huh7 cells = test: Cell proliferation assay I (PrestoBlue), Huh7; format: cell-based, human; settings: 72 h; for Huh7 cell survival (%): vs control without drug
Procedure: as §5

HeLa = test: Cell proliferation assay II (MTS), HeLa; format: cell-based, human; settings: 72 h, mean ± SD
Procedure: as §2, §3, §4

FaDu = test: Cell proliferation assay II (MTS), FaDu; format: cell-based, human; settings: 72 h, mean ± SD
Procedure: as §2, §3, §4

U87 = test: Cell proliferation assay II (MTS), U87; format: cell-based, human; settings: U87, 72 h, mean ± SD
Procedure: as §2, §3, §4

Hep3B hepatoma cells = test: Xenotransplantation assay of cell proliferation in zebrafish embryos; format: in vivo, human; settings: two days, zebrafish embryo xenotransplant
A375 = test: Cell proliferation assay II (MTS), A375; format: cell-based, human; settings: A375, 72 h, mean ± SD
Procedure: as §2, §3, §4

[2] = tested on: ccne1, cdk1, cdk2, myca, mycb, ccnd1; test: qPCR of cell proliferation markers and beta-catenin downstream target genes in tert transgenic zebrafish; format: in vivo, zebrafish (Danio rerio); settings: 0.5×(50 μM), 15 dpf, vs untreated
Procedure: as §1
Total RNA was isolated by NucleoSpin® RNA kit ([…]-NAGEL, USA). […]
The resulting first-strand cDNA was used as a template for […] PCR in triplicate by using the SYBR Green Q-PCR Master Mix Kit (Applied Biosystems) using an ABI PRISM 7900 System. After normalization to internal control actin, the expression ratio between the experimental and control groups was calculated using the comparative Ct method. The relative expression ratio (fold change) was calculated based on ΔΔCt, ΔΔCt=(Cttarget−Ctactin)treatment−(Cttarget−Ctactin)control, and fold change=2^−ΔΔ^Ct. […] At least three independent samples were used for Q-PCR, and the standard error was calculated and incorporated into the presented data as […]±standard error. Differences among variables were assessed by a two-tailed Student's t test. […]

A375 cells = test: Cell proliferation assay I (PrestoBlue), A375; format: cell-based, human; settings: 72 h; for A375 cell survival (%): vs control without drug
Procedure: as §5

CNC(=O)c1cc(Oc2ccc(NC(=O)Nc3ccc(Cl)c(C(F)(F)F)c3)cc2)ccn1 [Sorafenib]
liver size vs DMSO treated control (zebrafish liver): significantly reduce liver size

cobalt-containing glutamic acid (COGA) complex
number of mitotic figures, trinucleated cells, and macronucleated cells [1]: significantly reduced
IC50 (K-562): 54.5 ± 4.4 µM
U-87 MG cell survival (%) (U-87 MG cells; 5 nM): 100% and 105% and 103%
U-87 MG cell survival (%) (U-87 MG cells; 14 nM): 95% and 97%
U-87 MG cell survival (%) (U-87 MG cells; 41 nM): 89% and 93%
U-87 MG cell survival (%) (U-87 MG cells; 123 nM): 89%
U-87 MG cell survival (%) (U-87 MG cells; 370 nM): 87% and 91% and 85%
U-87 MG cell survival (%) (U-87 MG cells; 1111 nM): 87% and 90% and 84%
U-87 MG cell survival (%) (U-87 MG cells; 3333 nM): 87% and 89% and 84%
U-87 MG cell survival (%) (U-87 MG cells; 10000 nM): 89% and 90% and 88%
IC50 (U-87 MG cells; U-87 MG cells): > 10 µM
IC50 (NCI-H226): 45 µM and 44.5 µM
Huh7 cell survival (%) (Huh7 cells; 5 nM): 102% and 107% and 100%
Huh7 cell survival (%) (Huh7 cells; 14 nM): 88% and 92% and 84%
Huh7 cell survival (%) (Huh7 cells; 41 nM): 78% and 80% and 72%
Huh7 cell survival (%) (Huh7 cells; 123 nM): 73% and 77% and 71%
Huh7 cell survival (%) (Huh7 cells; 370 nM): 74% and 75% and 69%
Huh7 cell survival (%) (Huh7 cells; 1111 nM): 82% and 79% and 73%
Huh7 cell survival (%) (Huh7 cells; 3333 nM): 80% and 82% and 75%
Huh7 cell survival (%) (Huh7 cells; 10000 nM): 89% and 92% and 82%
IC50 (Huh7 cells; Huh7 cells): 0.287 ± 0.0618 µM
IC50 (HeLa): 73.7 ± 19 µM
IC50 (FaDu): 74.6 ± 63 µM
IC50 (U87): 42 µM
hepatoma cell proliferation compared to the DMSO treatment (Hep3B hepatoma cells; 0.5×(50 μM)): significantly reduced
hepatoma cell proliferation compared to the DMSO treatment (Hep3B hepatoma cells; 1×(100 μM)): significantly reduced
IC50 (A375): 102 ± 2 µM
expression of cell proliferation markers (ccne1, cdk1, cdk2) and beta-catenin downstream target genes (myca, mycb, ccnd1) [2]: significantly reduced
A375 cell survival (%) (A375 cells; 5 nM): 110% and 104% and 105%
A375 cell survival (%) (A375 cells; 14 nM): 89% and 87% and 85%
A375 cell survival (%) (A375 cells; 41 nM): 74% and 71% and 68%
A375 cell survival (%) (A375 cells; 123 nM): 72% and 69% and 67%
A375 cell survival (%) (A375 cells; 370 nM): 69% and 68% and 62%
A375 cell survival (%) (A375 cells; 1111 nM): 70% and 71% and 67%
A375 cell survival (%) (A375 cells; 3333 nM): 77% and 76% and 72%
A375 cell survival (%) (A375 cells; 10000 nM): 89% and 88% and 84%
IC50 (A375 cells; A375 cells): 0.0687 ± 0.0158 µM
